In EP3839043A1, “SCREENING METHODS FOR COMPOUNDS MODULATING POLYAMINE TRANSPORT” (Katholieke Universiteit Leuven, priority 2019, dated 2021):
Structures can show the parent of a compound that is named as a salt.

Assays:
[1] = biological target: T1, Purified ATP13A2 (Homo sapiens, UniProt Q9NQ11); test: ATPase assay (ADP-Glo Max), purified ATP13A2 from yeast expression system; assay type: biochemical; set-up: we obtained >95% pure, full length and solubilized ATP13A2; biotin acceptor domain (BAD) tag behind a thrombin cleavage site (C, cleaved yes); made in house; host or cells: S. cerevisiae W303-1B/Gal4-ΔPep4, pYeDP60 vector; conditions: for lipid concentration of maximal effect on ATPase activity / ATP13A2 activity, effect of regulatory lipids: purified ATP13A2; for lipid concentration of maximal effect on ATPase activity: 2 mM SPM; for ATP13A2 activity, effect of regulatory lipids: only in the presence of SPM
T1 sequence (Q9NQ11 1-1175 isoform Q9NQ11-3): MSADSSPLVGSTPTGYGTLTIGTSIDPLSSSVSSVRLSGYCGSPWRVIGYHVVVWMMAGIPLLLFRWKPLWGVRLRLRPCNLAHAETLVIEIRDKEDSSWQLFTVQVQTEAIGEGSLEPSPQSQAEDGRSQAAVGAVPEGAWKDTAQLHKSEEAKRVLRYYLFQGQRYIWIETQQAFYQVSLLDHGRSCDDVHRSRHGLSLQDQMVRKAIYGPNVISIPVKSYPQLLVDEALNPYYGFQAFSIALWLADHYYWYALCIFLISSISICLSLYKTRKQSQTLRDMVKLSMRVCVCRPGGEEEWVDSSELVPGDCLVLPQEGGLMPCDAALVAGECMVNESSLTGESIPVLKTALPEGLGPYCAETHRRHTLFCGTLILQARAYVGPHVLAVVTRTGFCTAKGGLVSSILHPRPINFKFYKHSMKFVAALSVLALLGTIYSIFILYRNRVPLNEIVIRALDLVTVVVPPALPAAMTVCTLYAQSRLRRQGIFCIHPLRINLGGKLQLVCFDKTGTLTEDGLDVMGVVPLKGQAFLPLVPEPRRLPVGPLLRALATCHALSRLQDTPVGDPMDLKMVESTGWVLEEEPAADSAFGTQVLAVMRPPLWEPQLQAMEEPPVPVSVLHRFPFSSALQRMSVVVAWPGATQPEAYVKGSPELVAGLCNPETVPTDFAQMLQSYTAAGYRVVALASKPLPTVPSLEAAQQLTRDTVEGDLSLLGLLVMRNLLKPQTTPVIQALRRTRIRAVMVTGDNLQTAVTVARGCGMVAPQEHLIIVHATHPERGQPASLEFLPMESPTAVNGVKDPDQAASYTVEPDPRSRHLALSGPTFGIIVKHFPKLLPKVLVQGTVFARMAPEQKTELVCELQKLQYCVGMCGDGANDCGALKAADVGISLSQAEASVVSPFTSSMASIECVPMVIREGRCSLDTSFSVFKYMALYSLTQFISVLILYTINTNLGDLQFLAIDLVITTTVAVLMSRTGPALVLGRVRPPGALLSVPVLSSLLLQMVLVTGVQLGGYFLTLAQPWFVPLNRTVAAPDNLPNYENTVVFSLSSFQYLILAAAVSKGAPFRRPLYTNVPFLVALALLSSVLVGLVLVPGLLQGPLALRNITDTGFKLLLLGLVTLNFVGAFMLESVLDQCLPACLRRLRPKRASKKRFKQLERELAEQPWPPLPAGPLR
Description: (§1) ATPase assay - The ATPase activity of ATP13A2 was assessed using a commercially available luminescence assay (ADP-Glo Max assay, Promega) that monitors the production of ADP via luciferase activity. The reactions were performed for 30 min (37°C) in a final volume of 25 µl. The assay reaction mixture contained 50 mM MOPS-KOH (pH 7), 100 mM KCI, 11 mM MgCl2, 1 mM DTT, 195 µM DDM, various concentrations of the indicated compound, and either microsomes (5 µg) harvested from SH-SY5Y cells overexpressing ATP13A2 (WT or mutants) or purified ATP13A2 (0.5 µg). When purified ATP13A2 was used, we included 125 µM PA, 125 µM PI(3,5)P2 and 19.5 µM DDM in the reaction buffer. The assay was started by the addition of 5 mM ATP and was terminated by adding 25 µl of ADP-Glo Reagent. The 96-well plate was then incubated for 40 min at room temperature, followed by the addition of 50 µl of ADP-Glo Max Detection Reagent. After 40 min, luminescence was detected using a FlexStation 3.0 system (Molecular Devices). Dose-response curves and n/Km/Vmax values were calculated using GraphPad Prism Software (GraphPad Software Inc.).
Transformation and overexpression of ATP13A2 in yeast - The S. cerevisiae W303-1B/Gal4-ΔPep4 strain (leu2-3, his3-11,15, trp1-1::TRP1-GAL10-GAL4, ura3-1, ade2-1, canr, cir^+, ΔPep4 MAT; a kind gift from Rosa Lopez Marques) was transformed according to the lithium acetate/single-stranded carrier DNA/polyethylene glycol method [Gietz, R. D. & Woods, R. A. Methods Enzymol 350, 87-96 (2002)], with the pYeDP60 vector containing a yeast codon optimized version of human ATP13A2 variant 2 (WT or the catalytically dead E343A mutant) followed by a thrombin cleavage site and a C-terminal BAD tag [Azouaoui, H. et al. PLoS One 9, e112176, (2014); Jidenko, M. et al.Protein Expr Purif 48, 32-42, (2006)]. The transformation mixture was grown for 48 h at 30°C on minimal medium agar plates lacking uracil (0.54% yeast nitrogen base without amino acids, 0.12% yeast drop-out mix without Ura, 2% glucose, and 2% agar) to select yeast colonies that acquired the plasmid. These colonies were then cultured in 20 ml of MM-Ura medium (0.67% yeast nitrogen base without amino acids, 0.19% yeast drop-out mix without Ura, and 2% glucose) and grown for 24 h at 28°C and 200 rpm. The MM-Ura yeast pre-culture was used to inoculate 100 ml of MM-Ura medium to a final OD600 of 0.2, followed by a 12 h incubation period (28°C and 200 rpm). The second pre-culture was inoculated into 4.5 l of YPGE2X medium (2% yeast extract, 2% bactopeptone, 1% glucose, and 2.7% ethanol) to a final OD600 of 0.05 and grown for 36 h (28°C and 175 rpm). ATP13A2-BAD expression was induced with 2% galactose, followed by a second galactose induction 12 h later. After another 12 h, the pellet was collected (1,000 x g; 10 min; 4°C).
Yeast membrane preparation - Yeast cells were broken with glass beads using a BeadBeater (BioSpec products). The lysis buffer contained 50 mM Tris-HCI (pH 7.5), 1 mM EDTA, 0.6 M sorbitol, 1 mM phenylmethylsulfonyl fluoride and SigmaFast protease inhibitor. To remove cell debris and nuclei, the crude extract was centrifuged at 2,000 x g for 20 min (4°C). The supernatant (S1) was centrifuged at 20,000 x g for 20 min (4°C) to pellet the heavy membrane fraction (P2), and the resulting supernatant (S2) was further centrifuged at 200,000 x g for 1 h (4°C). The resulting pellet (i.e., the light membrane fraction, P3) was resuspended in 20 mM HEPES-Tris (pH 7.4), 0.3 M sucrose and 0.1 mM CaCl2. The total protein concentration was determined using a Bradford assay (B6916, Sigma-Aldrich).
ATP13A2-BAD purification - The method used to purify ATP13A2 was based on the purification of overexpressed Drs2p from yeast membranes. Yeast P3 membranes were diluted to 5 mg of total protein/ml in SSR buffer (50 mM MOPS-KOH (pH 7), 100 mM KCI, 20% glycerol, 5 mM MgCl2, 1 mM DTT, and SigmaFast protease inhibitor cocktail) and solubilized using DDM, with a detergent to protein ratio of 1:1.

[2] = biological target: T2, Microsomal ATP13A2 (Homo sapiens, UniProt Q9NQ11); test: ATPase assay (ADP-Glo Max), solubilized microsomes of SH-SY5Y cells overexpressing ATP13A2 WT; assay type: biochemical; conditions: for ATPase activity of ATP13A2, dose-response: indicated doses, microsomes 5 µg; for ATPase activity of ATP13A2 WT, screen for candidate substrates: 100 nM CaCl2, MnCl2, ZnCl2 or FeCl3, 100 µM SPD or SPM
T2 construct: expressed in transfected cells; host or cells: SH-SY5Y human neuroblastoma cells, lentiviral transduction; microsomes solubilised with DDM
T2 sequence (Q9NQ11 1-1175 isoform Q9NQ11-3): T1 sequence (Q9NQ11 1-1175 isoform Q9NQ11-3)
Description: Membrane fractionation - Transduced SH-SY5Y cells were seeded in […] at a density of 6 x 10^6 cells per plate. 24 h later, the cells were harvested following trypsinization and brief centrifugation (300 x g, 5 min). Subcellular fractionation was performed by differential centrifugation. The microsomal protein concentration was measured using the bicinchoninic acid assay (Thermo Fischer Scientific, Pierce) according to the manufacturer's instructions.
as §1, with “The assay reaction mixture contained 50 mM MOPS-KOH (pH 7), 100 mM KCI, 11 mM MgCl2, 1 mM DTT, 195 µM DDM, various concentrations of the indicated compound, and either microsomes (5 µg) harvested from SH-SY5Y cells overexpressing ATP13A2 (WT or mutants) or purified ATP13A2 (0.5 µg). When purified ATP13A2 was used, we included 125 µM PA, 125 µM PI(3,5)P2 and 19.5 µM DDM in the reaction buffer.” left out

[3] = tested on: SH-SY5Y cells; test: MUH cytotoxicity assay; assay type: cell-based, human; conditions: increasing concentrations, 24 h
Description: MUH cytotoxicity assay - SH-SY5Y cells were seeded in 96-well plates (1 X 10^4 cells per well) and allowed to adhere overnight. The cells were subsequently treated with increasing doses of the indicated compounds for 24-48 h. Following exposure, the cells were washed with PBS and stained with 300 µg/ml MUH (prepared in DMSO, dissolved in PBS) for 30 min at 37°C.

Row | SMILES | ATPase activity of ATP13A2 WT, screen for candidate substrates [2] | ATPase activity of ATP13A2, dose-response [2] | further results
1 | [Na+].[Na+].[Na+].[O]=[V]([O-])([O-])[O-] [orthovanadate, sodium orthovanadate] | – | – | SPM-induced ATPase activity, inhibition ([1]; 1 mM SPM, 0.25 mM orthovanadate, 125 µM PA/PI(3,5)P2): blocked
2 | Cl.Cl.NCCCCN [putrescine, putrescine dihydrochloride] | – | did not induce ATP13A2 activity | viability of control cells [3]: not cytotoxic
3 | CC(=O)NCCCNCCCCNCCCN [N1-acetylspermine, N^1-acetylspermine trihydrochloride] | – | stimulate ATPase activity in a concentration-dependent manner | Vmax ± SEM ([2]; Microsomal ATP13A2): 98 ± 5 nmol ADP/mg/min
4 | CCCCCCCC/C=C\CCCCCCCC(=O)OC[C@H](COP(=O)(O)O)OC(=O)CCCCCCC/C=C\CCCCCCCC [PA, 1,2-dioleoyl-sn-glycero-3-phosphate (sodium salt)] | – | – | lipid concentration of maximal effect on ATPase activity [1]: 125 µM; ATP13A2 activity, effect of regulatory lipids [1]: strongly stimulated
5 | [Cl][Fe]([Cl])[Cl] [FeCl3] | did not increase ATP13A2 activity | – | –
6 | [Cl-].[Cl-].[Zn+2] [ZnCl2] | did not increase ATP13A2 activity | – | –
7 | Cl.NCCc1ccc(O)c(O)c1 [dopamine, dopamine hydrochloride] | – | did not induce ATP13A2 activity | –
8 | N=C(N)NCCCCN.O=S(=O)(O)O [agmatine, agmatine sulfate salt] | – | did not induce ATP13A2 activity | –
9 | [Cl][Mn][Cl] [MnCl2] | did not increase ATP13A2 activity | – | –
10 | NCCc1c[nH]cn1 [histamine] | – | did not induce ATP13A2 activity | –
11 | [Ca+2].[Cl-].[Cl-] [CaCl2] | had no effect | – | –
12 | NCCCCCN [cadaverine] | – | did not induce ATP13A2 activity | –
13 | CCCCCCCC/C=C\CCCCCCCC(=O)OC[C@H](COP(=O)(O)O[C@@H]1[C@H](O)[C@H](OP(=O)(O)O)[C@@H](O)[C@H](OP(=O)(O)O)[C@H]1O)OC(=O)CCCCCCC/C=C\CCCCCCCC [PI(3,5)P2, 1,2-dioleoyl-sn-glycero-3-phospho-(1'-myo-inositol-3',5'-bisphosphate) (ammonium salt)] | – | – | lipid concentration of maximal effect on ATPase activity [1]: 125 µM; ATP13A2 activity, effect of regulatory lipids [1]: strongly stimulated
